Test results from patent US9527807B2, “Sulfonamide derivative and use thereof” (Takeda Pharmaceutical Company Limited, priority 2011, dated 2016).

Biological target: T1, AMPA receptor (human GluR1 flip/stargazin expressed in CHO-K1 cells) (Homo sapiens, UniProt P42261)
T1 construct: expressed in transfected cells; host or cells: CHO-K1
Assay: AMPA receptor function enhancing activity using calcium influx as index
Type: cell-based
Conditions: change in fluorescence level in 3 min, 100% = 3 mM glutamic acid + 300 μM cyclothiazide, 0% = 3 mM glutamic acid only
From the text: Human GluR1 flip cDNA was amplified by PCR using forward primer […] (SEQ ID NO: 1) and reverse primer […] (SEQ ID NO: 2) artificially synthesized using human brain-derived cDNA (BD Bio science) as a template. The amplified product was digested with restriction enzymes EcoRI, NotI (TAKARA SHUZO CO. LTD.), and incorporated into the same site of pcDNA3.1(+) (Invitrogen) to construct pcDNA3.1(+)/human GluR1 flip gene. Human stargazin cDNA was amplified by PCR using forward primer […] (SEQ ID NO: 3) and reverse primer. […] (SEQ ID NO: 4) artificially synthesized using human hippocampus cDNA as a template. The amplified product was digested with restriction enzymes XhoI, BamHI (TAKARA SHUZO CO. LTD.), and incorporated into the same site of pcDNA3.1(−) (Invitrogen) to construct pcDNA3.1 Zeo(−)/human stargazin gene.
(2) Construction of GluR1 Flip/Stargazin Expressing Cell
CHO-K1 cells passaged in a culture medium (Ham's F12 medium (Invitrogen) added with 10% inactivated fetal bovine serum (Morgate) and penicillin, streptomycin (Invitrogen)) were detached with 0.05% trypsin, 0.53 mM EDTA (Invitrogen) diluted with D-PBS(−). The detached cells were suspended in a culture medium, and recovered by a centrifugation operation at 1,000 rpm. The recovered cells were suspended again in D-PBS(−), and added to a 0.4 cm electroporation cuvette (BioRad). pcDNA3.1(+)/human GluR1 flip gene (5 μg) and pcDNA3.1 Zeo(−)/human stargazin gene (15 μg) were added, and the mixture was introduced into CHO-K1 cells using Gene Pulser II (BioRad) under the conditions of 950 μFd, […]. The introduced cells were cultured overnight in a culture medium and, the next day, plated in a 96 well plate at 250 cells/well using a selection medium (culture medium added with Zeocin (Invitrogen) to 250 μg/mL). Clones showing drug resistance were selected, and GluR1 flip/stargazin expressing clones were selected by an assay method using calcium influx as an index as shown below.
(3) Measurement Method of AMPA Receptor Function Enhancing Activity of Compound Using Calcium Influx as Index
CHO-K1/GluR1 flip/stargazin expressing cells were plated on a 384 well black transparent bottom plate (FMAT4307723) at 0.5×10^4 cells/well, and cultured in a 37° C., CO2 incubator (SANYO Electric Co., Ltd.) for 2 days. The medium in the cell plate was removed, and a calcium indicator (Calcium 4 Assay Kit, Molecular. Devices) containing 1.25 mM probenecid (Invitrogen) was added at 25 μL/well and the well was left standing in 37° C., CO2 incubator for 1 hr. The cell plate was set in FLITRtetra (Molecular Devices), a mixture (12.5 μL) of 9 mM glutamic acid diluted with assay buffer B (HBSS (Invitrogen), 0.1% BSA, 10 mM HEPES) and a test compound was added, and the amount of change in fluorescence level in 3 min was measured. In the definition here, the amount of change in fluorescence level of well added with glutamic acid at final concentration 3 mM and 300 μM cyclothiazide (TOCRIS) is 100%, the amount of change in fluorescence level of well added only with glutamic acid at final concentration 3 mM is 0%, and the compound activity was calculated according to the following formula. activity (%)=(X−C)/(T−C)×100 T: amount of change in fluorescence level of well added with glutamic acid at final concentration 3 mM and 300 μM cyclothiazide C: amount of change in fluorescence level of well added only with glutamic acid at final concentration 3 mM X: amount of change in fluorescence level of well added with to test compound

T1 sequence (P42261 19-906 isoform P42261-2 limits assumed): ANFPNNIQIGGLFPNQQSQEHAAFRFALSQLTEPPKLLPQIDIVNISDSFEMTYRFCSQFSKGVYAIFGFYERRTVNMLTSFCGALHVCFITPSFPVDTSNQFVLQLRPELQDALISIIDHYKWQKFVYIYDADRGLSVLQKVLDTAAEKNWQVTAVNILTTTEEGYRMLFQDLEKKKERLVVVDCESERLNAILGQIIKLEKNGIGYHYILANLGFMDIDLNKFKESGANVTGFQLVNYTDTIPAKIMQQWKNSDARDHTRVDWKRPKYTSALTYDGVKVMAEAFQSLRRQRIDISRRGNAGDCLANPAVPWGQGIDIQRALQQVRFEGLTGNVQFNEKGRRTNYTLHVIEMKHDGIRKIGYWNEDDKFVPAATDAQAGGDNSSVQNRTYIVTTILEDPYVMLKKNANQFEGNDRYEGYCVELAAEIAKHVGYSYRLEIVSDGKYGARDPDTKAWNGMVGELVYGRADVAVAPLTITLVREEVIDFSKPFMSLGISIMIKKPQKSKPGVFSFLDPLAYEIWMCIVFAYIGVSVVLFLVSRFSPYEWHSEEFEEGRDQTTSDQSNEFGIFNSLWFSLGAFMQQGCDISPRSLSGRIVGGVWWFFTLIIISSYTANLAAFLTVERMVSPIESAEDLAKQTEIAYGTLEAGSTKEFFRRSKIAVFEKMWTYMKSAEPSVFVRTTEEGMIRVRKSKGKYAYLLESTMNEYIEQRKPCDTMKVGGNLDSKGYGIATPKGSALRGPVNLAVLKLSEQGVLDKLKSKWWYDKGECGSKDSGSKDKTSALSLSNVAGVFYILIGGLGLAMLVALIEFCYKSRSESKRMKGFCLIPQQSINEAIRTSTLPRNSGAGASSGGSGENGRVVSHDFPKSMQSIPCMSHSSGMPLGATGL
T1 sequence (Q9Y698 whole entry partner): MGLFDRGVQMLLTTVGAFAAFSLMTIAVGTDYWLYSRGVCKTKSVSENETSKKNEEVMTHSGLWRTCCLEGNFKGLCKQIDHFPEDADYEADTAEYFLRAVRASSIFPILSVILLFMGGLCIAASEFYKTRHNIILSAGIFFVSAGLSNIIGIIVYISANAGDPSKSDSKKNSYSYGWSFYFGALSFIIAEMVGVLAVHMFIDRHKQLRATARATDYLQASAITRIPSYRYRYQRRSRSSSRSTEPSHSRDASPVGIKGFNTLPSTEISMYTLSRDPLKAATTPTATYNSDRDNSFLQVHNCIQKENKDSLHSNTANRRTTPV

Q: With CS(=O)(=O)N[C@H]1C[C@H]2CC[C@H](O2)[C@@H]1COc1ccc(-c2ccc(C#N)cn2)cc1 (mixture of isomers) [Example 508, N-((1S,2SR,3SR,5R)-2-((4-(5-cyanopyridin-2-yl)phenoxy)methyl)-8-oxabicyclo[3.2.1]oct-3-yl)methanesulfonamide] as the molecule, how does the “activity (%)” value read?
A: The value was 38%.

Q: CCS(=O)(=O)N[C@H]1CCCO[C@@H]1COc1ccc(C2CC2)cc1 (racemic) [Example 4, 1,5-anhydro-6-O-(4-cyclopropylphenyl)-2,3,4-trideoxy-4-[(ethylsulfonyl)amino]-DL-erythrohexitol] was tested. Which “activity (%)” value did it give?
A: The value was 86%.

Q: With CS(=O)(=O)N[C@H]1CCCO[C@@H]1COc1ccc(C2CC2)cc1 (racemic) [Example 5, 1,5-anhydro-6-O-(4-cyclopropylphenyl)-2,3,4-trideoxy-4-[(methylsulfonyl)amino]-DL-erythrohexitol] as the molecule, how does the “activity (%)” value read?
A: Its value is 78%.

Q: Which “activity (%)” value does the source give for CS(=O)(=O)N[C@H]1CCCO[C@@H]1COc1ccc(-c2ccc(C#N)cn2)cc1 (racemic) [Example 164, 1,5-anhydro-6-O-[4-(5-cyanopyridin-2-yl)phenyl]-2,3,4-trideoxy-4-[(methylsulfonyl)amino]-DL-erythro-hexitol] here?
A: The value was 76%.

Q: How did the “activity (%)” value turn out when CCS(=O)(=O)N[C@H]1CCCO[C@@H]1COc1ccc(-c2ncc(C)s2)cc1 (racemic) [Example 181, 1,5-anhydro-2,3,4-trideoxy-4-[(ethylsulfonyl)amino]-6-O-[4-(5-methyl-1,3-thiazol-2-yl)phenyl]-DL-erythro-hexitol] was run?
A: Its value is 77%.

Q: Cc1cnc(-c2ccc(OC[C@H]3OCCC[C@@H]3NS(=O)(=O)C3CC3)cc2)s1 (racemic) [Example 192, 1,5-anhydro-4-[(cyclopropylsulfonyl)amino]-2,3,4-trideoxy-6-O-[4-(5-methyl-1,3-thiazol-2-yl)phenyl]-DL-erythro-hexitol] was tested. Which “activity (%)” value did it give?
A: The value was 74%.

Q: How did the “activity (%)” value turn out when O=S(=O)(N[C@H]1CCOC[C@@H]1COc1ccc(-c2ccc(F)cn2)c(F)c1)C1CC1 (racemic) [Example 243, N-[(3RS,4SR)-3-{[3-fluoro-4-(5-fluoropyridin-2-yl)phenoxy]methyl}tetrahydro-2H-pyran-4-yl]cyclopropanesulfonamide] was run?
A: The value was 96%.

Q: With CS(=O)(=O)N[C@H]1CCOC[C@@H]1COc1ccc(-c2ccc(Cl)cn2)c(F)c1 (racemic) [Example 244, N-[(3RS,4SR)-3-{[4-(5-chloropyridin-2-yl)-3-fluorophenoxy]methyl}tetrahydro-2H-pyran-4-yl]methanesulfonamide] as the molecule, how does the “activity (%)” value read?
A: Its value is 96%.

Q: Which “activity (%)” value does the source give for CS(=O)(=O)N[C@H]1CCC(F)(F)C[C@@H]1COc1ccc(-c2ccc(C#N)cn2)cc1 (racemic) [Example 260, N-[(1SR,2SR)-2-{[4-(5-cyanopyridin-2-yl)phenoxy]methyl}-4,4-difluorocyclohexyl]methanesulfonamide] here?
A: Its value is 82%.

Q: With CCS(=O)(=O)N[C@H]1CCOC[C@@H]1COc1ccc(-c2ncc(Cl)s2)cc1 (racemic) [Example 261, N-[(3RS,4SR)-3-{[4-(5-chloro-1,3-thiazol-2-yl)phenoxy]methyl}tetrahydro-2H-pyran-4-yl]ethanesulfonamide] as the molecule, how does the “activity (%)” value read?
A: The value was 92%.

Q: With O=S(=O)(N[C@H]1CCOC[C@@H]1COc1ccc(-c2ncc(Cl)cc2F)cc1)C1CC1 (racemic) [Example 262, N-[(3RS,4SR)-3-{[4-(5-chloro-3-fluoropyridin-2-yl)phenoxy]methyl}tetrahydro-2H-pyran-4-yl]cyclopropanesulfonamide] as the molecule, how does the “activity (%)” value read?
A: The value was 89%.

Q: Cc1nc(-c2ccc(OC[C@H]3COCC[C@@H]3NS(C)(=O)=O)cc2)cs1 (racemic) [Example 263, N-[(3RS,4SR)-3-{[4-(2-methyl-1,3-thiazol-4-yl)phenoxy]methyl}tetrahydro-2H-pyran-4-yl]methanesulfonamide] was tested. Which “activity (%)” value did it give?
A: The value was 66%.

Q: CS(=O)(=O)N[C@H]1CCOC[C@@H]1COc1ccc(-n2cc(Cl)cn2)cc1 (racemic) [Example 270, N-[(3RS,4SR)-3-{[4-(4-chloro-1H-pyrazol-1-yl)phenoxy]methyl}tetrahydro-2H-pyran-4-yl]methanesulfonamide] was tested. Which “activity (%)” value did it give?
A: Its value is 74%.

Q: With CN(C)S(=O)(=O)N[C@H]1CCOC[C@@H]1COc1ccc(-n2cc(Cl)cn2)cc1 (racemic) [Example 279, N′-[(3RS,4SR)-3-{[4-(4-chloro-1H-pyrazol-1-yl)phenoxy]methyl}tetrahydro-2H-pyran-4-yl]-N,N-dimethylsulfamide] as the molecule, how does the “activity (%)” value read?
A: Its value is 79%.

Q: Which “activity (%)” value does the source give for Cc1cnn(-c2ccc(OC[C@H]3COCC[C@@H]3NS(=O)(=O)C(F)(F)F)cc2)c1 (racemic) [Example 280, 1,1,1-trifluoro-N-[(3RS,4SR)-3-{[4-(4-methyl-1H-pyrazol-1-yl)phenoxy]methyl}tetrahydro-2H-pyran-4-yl]methanesulfonamide] here?
A: The value was 108%.

Q: How did the “activity (%)” value turn out when Cc1cc(-c2ccc(OC[C@H]3COCC[C@@H]3NS(C)(=O)=O)cc2)nn1C (racemic) [Example 281, N-[(3RS,4SR)-3-{[4-(1,5-dimethyl-1H-pyrazol-3-yl)phenoxy]methyl}tetrahydro-2H-pyran-4-yl]methanesulfonamide] was run?
A: Its value is 64%.

Q: How did the “activity (%)” value turn out when CCS(=O)(=O)N[C@H]1CCOC[C@@H]1COc1ccc(-c2cccnc2C)cc1 (racemic) [Example 322, N-[(3RS,4SR)-3-{[4-(2-methylpyridin-3-yl)phenoxy]methyl}tetrahydro-2H-pyran-4-yl]ethanesulfonamide] was run?
A: Its value is 91%.

Q: Cc1cnc(-c2ccc(OC[C@H]3COCC[C@@H]3NS(C)(=O)=O)cc2)s1 (racemic) [Example 333, N-[(3RS,4SR)-3-{[4-(5-methyl-1,3-thiazol-2-yl)phenoxy]methyl}tetrahydro-2H-pyran-4-yl]methanesulfonamide] was tested. Which “activity (%)” value did it give?
A: Its value is 93%.

Q: CCS(=O)(=O)N[C@H]1CCOC[C@@H]1COc1ccc(-c2ccc(C(F)(F)F)cn2)cc1 (racemic) [Example 351, N-[(3RS,4SR)-3-({4-[5-(trifluoromethyl)pyridin-2-yl]phenoxy}methyl)tetrahydro-2H-pyran-4-yl]ethanesulfonamide rac] was tested. Which “activity (%)” value did it give?
A: Its value is 70%.

Q: For O=S(=O)(N[C@H]1CCOC[C@@H]1COc1ccc(-c2ncc(F)cc2F)cc1)C1CC1 (racemic) [Example 362, N-[(3RS,4SR)-3-{[4-(3,5-difluoropyridin-2-yl)phenoxy]methyl}tetrahydro-2H-pyran-4-yl]cyclopropanesulfonamide], which “activity (%)” value is on record?
A: The value was 96%.

Q: CCS(=O)(=O)N[C@H]1CCOC[C@@H]1COc1ccc(-n2nccc2C)cc1 (racemic) [Example 431, N-[(3RS,4SR)-3-{[4-(5-methyl-1H-pyrazol-1-yl)phenoxy]methyl}tetrahydro-2H-pyran-4-yl]ethanesulfonamide] was tested. Which “activity (%)” value did it give?
A: Its value is 66%.

Q: CCS(=O)(=O)N[C@H]1CCOC[C@@H]1COc1ccc(-n2cc(Cl)cn2)c(F)c1 (racemic) [Example 489, N-[(3RS,4SR)-3-{[4-(4-chloro-1H-pyrazol-1-yl)-3-fluorophenoxy]methyl}tetrahydro-2H-pyran-4-yl]ethanesulfonamide] was tested. Which “activity (%)” value did it give?
A: Its value is 99%.

Q: With CCS(=O)(=O)N[C@H]1CCN(C(C)=O)C[C@@H]1COc1ccc(OC(F)F)cc1 (relative stereo) [Example 1, trans-N-[1-acetyl-3-{[4-(difluoromethoxy)phenoxy]methyl}piperidin-4-yl]ethanesulfonamide] as the molecule, how does the “activity (%)” value read?
A: The value was 46%.
